# Data from ChEMBL document CHEMBL1201862, “PubChem BioAssay data set” (2004).
#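 1) Cells in 96-well plates. 2) Compound, 48 h, 5 concentrations. 3) Linear interpolation between surrounding doses. 4) Unreached endpoint = highest concentration. Abbreviation: GI50, concentration required for 50% inhibition of growth.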 The source made the active and inactive calls. No stated cut-off is given here; in the data, active = GI50 up to about 1.1 µM and inactive = higher.
# Columns and labels:
# Assay in all cases: NCI-60 cell line screen, 48 h
# [1] = system: CCRF-CEM
# [2] = system: 786-0
# [3] = system: SN12C
# [4] = system: HCC 2998
# [5] = system: SF-268
# [6] = system: SK-OV-3
# [7] = system: EKVX
# [8] = system: LOX IMVI
# [9] = system: OVCAR-8
# [10] = system: NCI-H23
# [11] = system: IGROV-1
# [12] = system: RPMI-8226
# [13] = system: UACC-62
# [14] = system: OVCAR-4
# [15] = system: NCI-H460
# [16] = system: HOP-62
# [17] = system: DMS-273
# [18] = system: A549
# [19] = system: KM12
# [20] = system: SF-295
# [21] = system: U-251
# [22] = system: SK-MEL-2
# [23] = system: HOP-18
# [24] = system: OVCAR-3
# [25] = system: SNB-75
# [26] = system: SW-620
# [27] = system: KM-20L2
# [28] = system: CAKI-1
# [29] = system: XF498
# [30] = system: UACC-257
# [31] = system: K562
# [32] = system: TK-10
# [33] = system: SK-MEL-5
# [34] = system: COLO 205
# [35] = system: HT-29
# [36] = system: HL-60
# [37] = system: OVCAR-5
# [38] = system: MOLT-4
# [39] = system: ACHN
# [40] = system: M14
# [41] = system: UO-31
# [42] = system: M19-MEL
# [43] = system: SR
# [44] = system: LXFL 529
# [45] = system: Malme-3M
# [46] = system: NCI-H522
# [47] = system: SK-MEL-28
# [48] = system: DMS-114
# [49] = system: SF-539
# [50] = system: HCT-116
# [51] = system: RXF 393
# [52] = system: HOP-92
# [53] = system: NCI-H226
# [54] = system: SNB-19
# [55] = system: HCT-15
# [56] = system: A498
# [57] = system: DLD-1
# [58] = system: SNB-78
smiles,measurement,setting,value
Cc1ccc(C)c(NC(=O)c2cc(-c3ccc([N+](=O)[O-])cc3)nc(N)n2)c1,GI50,[1],> 100 µM (inactive)
same,GI50,[2],> 100 µM (inactive)
same,GI50,[3],> 100 µM (inactive)
same,GI50,[4],> 100 µM (inactive)
same,GI50,[5],> 100 µM (inactive)
same,GI50,[6],> 100 µM (inactive)
same,GI50,[7],> 100 µM (inactive)
same,GI50,[8],> 100 µM (inactive)
same,GI50,[9],> 100 µM (inactive)
same,GI50,[10],> 100 µM (inactive)
same,GI50,[11],> 100 µM (inactive)
same,GI50,[12],> 100 µM (inactive)
same,GI50,[13],> 100 µM (inactive)
same,GI50,[14],> 100 µM (inactive)
same,GI50,[15],> 100 µM (inactive)
same,GI50,[16],> 100 µM (inactive)
same,GI50,[17],> 100 µM (inactive)
same,GI50,[18],> 100 µM (inactive)
same,GI50,[19],> 100 µM (inactive)
same,GI50,[20],> 100 µM (inactive)
same,GI50,[21],> 100 µM (inactive)
same,GI50,[22],> 100 µM (inactive)
same,GI50,[23],> 100 µM (inactive)
same,GI50,[24],> 100 µM (inactive)
same,GI50,[25],> 100 µM (inactive)
same,GI50,[26],> 100 µM (inactive)
same,GI50,[27],> 100 µM (inactive)
same,GI50,[28],> 100 µM (inactive)
same,GI50,[29],> 100 µM (inactive)
same,GI50,[30],> 100 µM (inactive)
same,GI50,[31],> 100 µM (inactive)
same,GI50,[32],> 100 µM (inactive)
same,GI50,[33],> 100 µM (inactive)
same,GI50,[34],> 100 µM (inactive)
same,GI50,[35],> 100 µM (inactive)
same,GI50,[36],> 100 µM (inactive)
same,GI50,[37],> 100 µM (inactive)
same,GI50,[38],> 100 µM (inactive)
same,GI50,[39],> 100 µM (inactive)
same,GI50,[40],> 100 µM (inactive)
same,GI50,[41],> 100 µM (inactive)
same,GI50,[42],> 100 µM (inactive)
same,GI50,[43],> 100 µM (inactive)
same,GI50,[44],> 100 µM (inactive)
same,GI50,[45],> 100 µM (inactive)
same,GI50,[46],> 100 µM (inactive)
same,GI50,[47],> 100 µM (inactive)
same,GI50,[48],> 100 µM (inactive)
same,GI50,[49],> 100 µM (inactive)
same,GI50,[50],> 100 µM (inactive)
same,GI50,[51],> 100 µM (inactive)
same,GI50,[52],> 100 µM (inactive)
same,GI50,[53],> 100 µM (inactive)
same,GI50,[54],> 100 µM (inactive)
same,GI50,[55],> 100 µM
same,GI50,[56],> 100 µM (inactive)
same,GI50,[57],> 100 µM (inactive)
CCOC(=O)C1S/C(=N\c2ccc(Cl)cc2)N=C1C (configuration not stated),GI50,[2],16.9 µM (inactive)
same,GI50,[3],17.5 µM (inactive)
same,GI50,[4],17.7 µM (inactive)
same,GI50,[5],17 µM (inactive)
same,GI50,[7],21.4 µM (inactive)
same,GI50,[8],18.6 µM (inactive)
same,GI50,[9],22.3 µM (inactive)
same,GI50,[10],18 µM (inactive)
same,GI50,[11],19.5 µM (inactive)
same,GI50,[12],27.9 µM (inactive)
same,GI50,[14],24.7 µM (inactive)
same,GI50,[15],23.6 µM (inactive)
same,GI50,[16],20.2 µM (inactive)
same,GI50,[18],17.8 µM (inactive)
same,GI50,[19],18.2 µM (inactive)
same,GI50,[20],19.6 µM (inactive)
same,GI50,[21],18.8 µM (inactive)
same,GI50,[22],22.6 µM (inactive)
same,GI50,[23],23.3 µM (inactive)
same,GI50,[24],23.6 µM (inactive)
same,GI50,[25],21.3 µM (inactive)
same,GI50,[26],19.9 µM (inactive)
same,GI50,[27],19.2 µM (inactive)
same,GI50,[58],29.2 µM (inactive)
same,GI50,[29],20 µM (inactive)
same,GI50,[30],> 10 µM (inactive)
same,GI50,[31],19.4 µM (inactive)
same,GI50,[32],28.4 µM (inactive)
same,GI50,[34],17.5 µM (inactive)
same,GI50,[35],17.1 µM (inactive)
same,GI50,[36],23 µM (inactive)
same,GI50,[37],22.1 µM (inactive)
same,GI50,[38],16.7 µM (inactive)
same,GI50,[39],20.5 µM (inactive)
same,GI50,[41],19 µM (inactive)
same,GI50,[42],17.3 µM (inactive)
same,GI50,[44],> 10 µM (inactive)
same,GI50,[45],19.9 µM (inactive)
same,GI50,[46],17.3 µM (inactive)
same,GI50,[47],20.5 µM (inactive)
same,GI50,[48],23.8 µM (inactive)
same,GI50,[49],17.9 µM (inactive)
same,GI50,[50],16.6 µM (inactive)
same,GI50,[51],16.6 µM (inactive)
same,GI50,[52],15.9 µM (inactive)
same,GI50,[53],25.6 µM (inactive)
same,GI50,[54],19.2 µM (inactive)
same,GI50,[55],16.1 µM
same,GI50,[56],18.3 µM (inactive)
same,GI50,[57],14.1 µM (inactive)
